Source: paper PMC2894482 (Journal of medicinal chemistry, 2009)

Columns and labels:
[1] = test system: cocaine self-administration; conditions: cited from earlier work
[2] = target: T1, mGluR5 (Rattus norvegicus, UniProt P31424); type: binding; conditions: alkyne 11 vs similarly substituted amide 34
[3] = test system: rats; experiment: Preliminary in vivo testing in rats; conditions: personal communication with Dr. S. Barak Caine
[4] = target: rat mGluR5 (Rattus norvegicus, UniProt P31424); experiment: Calcium fluorescence assay; type: cell-based
Sequence of rat mGluR5 (P31424 21-1203): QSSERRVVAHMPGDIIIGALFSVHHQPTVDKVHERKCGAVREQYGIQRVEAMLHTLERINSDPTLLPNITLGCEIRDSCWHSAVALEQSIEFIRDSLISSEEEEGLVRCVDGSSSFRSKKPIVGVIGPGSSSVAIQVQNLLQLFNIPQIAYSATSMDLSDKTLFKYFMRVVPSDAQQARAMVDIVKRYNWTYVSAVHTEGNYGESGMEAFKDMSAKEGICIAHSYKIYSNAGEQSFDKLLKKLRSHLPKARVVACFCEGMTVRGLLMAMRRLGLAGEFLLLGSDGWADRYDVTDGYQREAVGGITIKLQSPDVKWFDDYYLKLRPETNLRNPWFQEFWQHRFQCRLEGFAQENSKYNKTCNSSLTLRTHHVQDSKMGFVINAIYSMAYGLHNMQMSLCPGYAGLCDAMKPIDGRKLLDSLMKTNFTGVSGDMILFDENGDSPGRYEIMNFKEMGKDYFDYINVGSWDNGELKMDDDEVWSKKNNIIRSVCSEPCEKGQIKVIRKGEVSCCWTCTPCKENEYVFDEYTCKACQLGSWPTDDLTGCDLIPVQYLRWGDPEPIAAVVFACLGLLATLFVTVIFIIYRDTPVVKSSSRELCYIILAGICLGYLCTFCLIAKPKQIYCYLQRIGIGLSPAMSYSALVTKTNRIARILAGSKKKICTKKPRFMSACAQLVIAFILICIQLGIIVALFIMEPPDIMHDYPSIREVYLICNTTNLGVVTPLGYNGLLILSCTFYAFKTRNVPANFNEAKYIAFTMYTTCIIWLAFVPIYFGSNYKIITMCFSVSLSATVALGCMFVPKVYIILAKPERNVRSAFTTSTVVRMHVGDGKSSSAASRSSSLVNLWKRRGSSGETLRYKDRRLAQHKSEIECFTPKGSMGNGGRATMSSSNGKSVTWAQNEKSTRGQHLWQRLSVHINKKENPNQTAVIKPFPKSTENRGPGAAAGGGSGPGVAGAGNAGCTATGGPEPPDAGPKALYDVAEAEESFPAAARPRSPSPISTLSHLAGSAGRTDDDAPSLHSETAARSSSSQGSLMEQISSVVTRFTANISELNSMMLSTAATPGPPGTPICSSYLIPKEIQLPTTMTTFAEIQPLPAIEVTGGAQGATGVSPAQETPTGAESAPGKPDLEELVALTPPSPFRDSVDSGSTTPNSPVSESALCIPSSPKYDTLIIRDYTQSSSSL

[5] = target: T1, mGluR5; experiment: mGluR5 radioligand binding with [3H]1, rat brain membranes

T1 sequence (P31424 21-1203): as above

Row | IC50 [4] [nM] | Ki [5] [nM] | Structure (SMILES) | other results
1 |  |  | Cc1cccc(C#Cc2ccccc2)n1 [Compound 1, 2-methyl-6-(phenylethynyl)pyridine] | effect on cocaine self-administration [1]: dose-dependently decreases; effect on food intake ([1]; identical schedules of reinforcement): no effect
2 |  |  | Cc1nc(C#Cc2cc(F)cc(C#N)c2)cs1 [Compound 11, 3-Fluoro-5-cyano-1-(2-methylthiazol-4-ylethynyl)benzene] | fold higher affinity at mGluR5 than the amide [2]: > 70 fold; toxicity in preliminary in vivo testing [3]: showed toxicity
3 | 3.08 ± 0.61 | 4 ± 0.6 | Cc1cccc(C#Cc2ccc(-c3ccccc3)c(C#N)c2)n1 [Compound 21, 2-Phenyl-5-(6-methylpyridin-2-ylethynyl)benzonitrile] | 
4 | 6.1 ± 1.95 | 17 ± 2.2 | Cc1cccc(C#Cc2ccc(-c3cccc(F)c3)c(C#N)c2)n1 [Compound 22, 2-(3-Fluorophenyl)-5-(6-methylpyridin-2-ylethynyl)benzonitrile] | 
